The values below are quoted from earlier work in US5215744A, “Methods for the treatment of tumors” (Boehringer Ingelheim GmbH, priority 1987, dated 1993).

The test system of one data set is PDE. As to conditions: cited from earlier work.
Data set [1] deals with interferon antitumor / growth inhibitory effect. The conditions noted are these: cited from earlier work.
The test system of data set [2] is syngeneic Wilms Tumor (nephroblastoma). The conditions noted are these: rat, in vivo; cited from earlier work.
In data set [3] the test system is antimitotic effect of interferon and its natural killer cell activating activity. The conditions noted are these: with interferon; cited from earlier work.
A further data set deals with C1300 neuroblastoma. The conditions noted are these: mouse, in vivo; cited from earlier work.
Another data set relates to HM-Kim mammary carcinoma. As to conditions: rat, in vivo; cited from earlier work.
For data set [4], the system named is human promyelocytic leukemic cell line. The conditions noted are these: cited from earlier work.
In the next data set the test system is neoplastic cells. As to conditions: cited from earlier work.
A further data set has as its system cAMP. As to conditions: cited from earlier work.

In the case of `OCCN(CCO)c1nc(N2CCCCC2)c2nc(N(CCO)CCO)ncc2n1` [mopidamole, 2,6-bis-(diethanolamino)-4-piperidino-pyrimido[5,4-d]pyrimidine], in the data set on PDE, the “PDE induced decomposition of cAMP” value is on record as “inhibition of PDE induced decomposition of cAMP”. The synergism with interferon result in data set [1] (Ambrus et al. 1983) is reported as “no synergism was seen”. In addition, the “synergism with α and γ interferon” value in data set [1] (Wolf et al.) is listed as “no synergistic inhibitory effect”. Besides, in data set [1] (tissue culture), the “effect on antitumor effect of leukocyte and fibroblastic interferon” value is “potentiates the antitumor effect of leukocyte and fibroblastic interferon in tissue culture”. Also, the “effect on growth inhibition by human fibroblastic β-interferon” value in data set [1] (with β-interferon) is “potentiates the growth inhibitory effect of human fibroblastic β-interferon”. For the same compound, the spontaneous lung metastases entry (in data set [2]; with C1300 neuroblastoma; in the data set with HM-Kim mammary carcinoma) was “diminish significantly spontaneous lung metastases” each time. Also, in data set [3], the “potentiation of interferon antimitotic effect and NK cell activating activity” value was “potentiates the antimitotic effect of interferon and its natural killer cell activating activity”. Also, the “reverse transformation of malignant cells” value in data set [4] is reported as “promotes a reverse transformation of the malignant cells to normal”. The 3H-thymidine incorporation result with neoplastic cells is reported as “inhibition of 3H-thymidine incorporation into neoplastic cells”. For the same compound, the mitotic rate result in the data set on neoplastic cells was “direct inhibition of the mitotic rate”. The cAMP levels entry in the data set on cAMP is on record as “increase cAMP levels”.
